Data published in patent US10407410B2, “Pyridin-3-yl acetic acid derivatives as inhibitors of human immunodeficiency virus replication” (priority 2016, dated 2019).

These compounds were tested on NL-RLuc virus (HIV) (assay: Inhibition of HIV replication (NL-RLuc luciferase reporter virus in MT-2 cells)). Conditions: Human immunodeficiency virus 1, MT2, 120 h.
Format: cell-based
Text: Inhibition of HIV Replication
A recombinant NL-RLuc proviral clone was constructed in which a section of the nef gene from NL4-3 was replaced with the Renilla Luciferase gene. This virus is fully infectious and can undergo multiple cycles of replication in cell culture. In addition, the luciferous reporter provides a simple and easy method for quantitating the extent of virus growth and consequently, the antiviral activity of test compounds. The plasmid pNLRLuc contains the proviral NL-Rluc DNA cloned into pUC18 at the PvuII site. The NL-RLuc virus was prepared by transfection of 293T cells with the plasmid pNLRLuc. Transfections were performed using the LipofectAMINE PLUS kit from Invitrogen (Carlsbad, Calif.) according to the manufacturer and the virus generated was titered in MT-2 cells. For susceptibility analyses, the titrated virus was used to infect MT-2 cells in the presence of compound, and after 5 days of incubation, cells were processed and quantitated for virus growth by the amount of expressed luciferase. Assay media was RPMI 1640 supplemented with 10% heat inactivated fetal bovine serum (FBS), 100 units/ml penicillin G/100 units/ml streptomycin, 10 mM HEPES buffer pH 7.55 and 2 mM L-glutamine. The results from at least 2 experiments were used to calculate the EC50 values. Luciferase was quantitated using the Dual Luciferase kit from Promega (Madison, Wis.). Susceptibility of viruses to compounds was determined by incubation in the presence of serial dilutions of the compound. The 50% effective concentration (EC50) was calculated by using the exponential form of the median effect equation where (Fa)=1/[1+(ED50/drug conc.)^m] (Johnson V A, Byington R T. Infectivity Assay. In Techniques in HIV Research. ed. Aldovini A, Walker B D. 71-76. New York: Stockton Press. 1990).

Row | SMILES | EC50 [µM]
1 | Cc1nc(C)c([C@H](OC(C)(C)C)C(=O)O)c(N2CCC(C)(C)CC2)c1-c1ccc2ccncc2c1 [Example 1, (S)-2-(tert-Butoxy)-2-(4-(4,4-dimethylpiperidin-1-yl)-5-(isoquinolin-7-yl)-2,6-dimethylpyridin-3-yl)acetic acid] | 0.047
2 | Cc1nc(C)c([C@H](OC(C)(C)C)C(=O)O)c(N2CCC(C)(C)CC2)c1-c1cnc2ccccc2c1 [Example 2, (S)-2-(tert-butoxy)-2-(4-(4,4-dimethylpiperidin-1-yl)-2,6-dimethyl-5-(quinolin-3-yl)pyridin-3-yl)acetic acid] | 0.073
3 | Cc1nc(C)c([C@H](OC(C)(C)C)C(=O)O)c(N2CCC(C)(C)CC2)c1-c1ccc2c(c1)OCCO2 [Example 3, (S)-2-(tert-butoxy)-2-(5-(2,3-dihydrobenzo[b][1,4]dioxin-6-yl)-4-(4,4-dimethylpiperidin-1-yl)-2,6-dimethylpyridin-3-yl)acetic acid] | 0.101
4 | Cc1nc(C)c([C@H](OC(C)(C)C)C(=O)O)c(N2CCC(C)(C)CC2)c1-c1ccc2cc[nH]c2c1 [Example 4, (S)-2-(tert-butoxy)-2-(4-(4,4-dimethylpiperidin-1-yl)-5-(1H-indol-6-yl)-2,6-dimethylpyridin-3-yl)acetic acid] | 0.233
5 | Cc1nc(C)c([C@H](OC(C)(C)C)C(=O)O)c(N2CCC(C)(C)CC2)c1-c1ccc2c(c1)CCC2 [Example 5, (S)-2-(tert-butoxy)-2-(5-(2,3-dihydro-1H-inden-5-yl)-4-(4,4-dimethylpiperidin-1-yl)-2,6-dimethylpyridin-3-yl)acetic acid] | 0.056
6 | Cc1nc(C)c([C@H](OC(C)(C)C)C(=O)O)c(N2CCC(C)(C)CC2)c1-c1ccc2sc(C(=O)O)cc2c1 [Example 6, (S)-5-(5-(tert-butoxy(carboxy)methyl)-4-(4,4-dimethylpiperidin-1-yl)-2,6-dimethylpyridin-3-yl)benzo[b]thiophene-2-carboxylic acid] | 66
7 | Cc1nc(C)c([C@H](OC(C)(C)C)C(=O)O)c(N2CCC(C)(C)CC2)c1-c1coc2ccccc12 [Example 7, (2S)-2-(5-(benzofuran-3-yl)-4-(4,4-dimethylpiperidin-1-yl)-2,6-dimethylpyridin-3-yl)-2-(tert-butoxy)acetic acid] | 0.288
8 | Cc1nc(C)c([C@H](OC(C)(C)C)C(=O)O)c(N2CCC(C)(C)CC2)c1-c1ccc2[nH]c(=O)[nH]c2c1 [Example 8, (S)-2-(tert-butoxy)-2-(4-(4,4-dimethylpiperidin-1-yl)-2,6-dimethyl-5-(2-oxo-2,3-dihydro-1H-benzo[d]imidazol-5-yl)pyridin-3-yl)acetic acid] | 7.07
9 | Cc1nc(C)c([C@H](OC(C)(C)C)C(=O)O)c(N2CCC(C)(C)CC2)c1-c1ccc2c(c1)OCCN2C [Example 9, (S)-2-(tert-butoxy)-2-(4-(4,4-dimethylpiperidin-1-yl)-2,6-dimethyl-5-(4-methyl-3,4-dihydro-2H-benzo[b][1,4]oxazin-7-yl)pyridin-3-yl)acetic acid] | 0.087
10 | Cc1nc(C)c([C@H](OC(C)(C)C)C(=O)O)c(N2CCC(C)(C)CC2)c1-c1ccc2c(c1)CCNC2=O [Example 10, (S)-2-(tert-butoxy)-2-(4-(4,4-dimethylpiperidin-1-yl)-2,6-dimethyl-5-(1-oxo-1,2,3,4-tetrahydroisoquinolin-6-yl)pyridin-3-yl)acetic acid] | 0.307
11 | Cc1nc(C)c([C@H](OC(C)(C)C)C(=O)O)c(N2CCC(C)(C)CC2)c1-c1ccc2c(c1)CNC2=O [Example 11, (S)-2-(tert-butoxy)-2-(4-(4,4-dimethylpiperidin-1-yl)-2,6-dimethyl-5-(1-oxoisoindolin-5-yl)pyridin-3-yl)acetic acid] | 1.68
12 | Cc1nc(C)c([C@H](OC(C)(C)C)C(=O)O)c(N2CCC(C)(C)CC2)c1-c1ccc2[nH]c(=O)cc(O)c2c1 [Example 12, (S)-2-(tert-butoxy)-2-(4-(4,4-dimethylpiperidin-1-yl)-5-(4-hydroxy-2-oxo-1,2-dihydroquinolin-6-yl)-2,6-dimethylpyridin-3-yl)acetic acid] | 4.96
13 | Cc1nc(C)c([C@H](OC(C)(C)C)C(=O)O)c(N2CCC(C)(C)CC2)c1-c1ccc2c(c1)CN(Cc1ccc(F)cc1)C2=O [Example 13, (S)-2-(tert-butoxy)-2-(4-(4,4-dimethylpiperidin-1-yl)-5-(2-(4-fluorobenzyl)-1-oxoisoindolin-5-yl)-2,6-dimethylpyridin-3-yl)acetic acid] | 0.012
14 | Cc1nc(C)c([C@H](OC(C)(C)C)C(=O)O)c(N2CCC(C)(C)CC2)c1-c1ccc2c(c1)CCN(Cc1ccc(F)cc1)C2=O [Example 14, (S)-2-(tert-butoxy)-2-(4-(4,4-dimethylpiperidin-1-yl)-5-(2-(4-fluorobenzyl)-1-oxo-1,2,3,4-tetrahydroisoquinolin-6-yl)-2,6-dimethylpyridin-3-yl)acetic acid] | 0.006
15 | Cc1nc(C)c([C@H](OC(C)(C)C)C(=O)O)c(N2CCC(C)(C)CC2)c1-c1ccc2c(c1)CCN(Cc1nccs1)C2=O [Example 15, (S)-2-(tert-butoxy)-2-(4-(4,4-dimethylpiperidin-1-yl)-2,6-dimethyl-5-(1-oxo-2-(thiazol-2-ylmethyl)-1,2,3,4-tetrahydroisoquinolin-6-yl)pyridin-3-yl)acetic acid] | 0.014
16 | Cc1ncsc1CN1CCc2cc(-c3c(C)nc(C)c([C@H](OC(C)(C)C)C(=O)O)c3N3CCC(C)(C)CC3)ccc2C1=O [Example 16, (S)-2-(tert-butoxy)-2-(4-(4,4-dimethylpiperidin-1-yl)-2,6-dimethyl-5-(2-((4-methylthiazol-5-yl)methyl)-1-oxo-1,2,3,4-tetrahydroisoquinolin-6-yl)pyridin-3-yl)acetic acid] | 0.006
17 | Cc1nc(C)c([C@H](OC(C)(C)C)C(=O)O)c(N2CCC(C)(C)CC2)c1-c1ccc2c(c1)CCN(Cc1cscn1)C2=O [Example 17, (S)-2-(tert-butoxy)-2-(4-(4,4-dimethylpiperidin-1-yl)-2,6-dimethyl-5-(1-oxo-2-(thiazol-4-ylmethyl)-1,2,3,4-tetrahydroisoquinolin-6-yl)pyridin-3-yl)acetic acid] | 0.024
18 | Cc1nc(C)c([C@H](OC(C)(C)C)C(=O)O)c(N2CCC(C)(C)CC2)c1-c1ccc2[nH]c(=O)cc(OCc3ccc(F)cc3)c2c1 [Example 18, (S)-2-(tert-butoxy)-2-(4-(4,4-dimethylpiperidin-1-yl)-5-(4-((4-fluorobenzyl)oxy)-2-oxo-1,2-dihydroquinolin-6-yl)-2,6-dimethylpyridin-3-yl)acetic acid] | 0.504
19 | Cc1nc(C)c([C@H](OC(C)(C)C)C(=O)O)c(N2CCC(C)(C)CC2)c1-c1ccc2c(c1)C(=O)C(Cc1ccc(F)cc1)(Cc1ccc(F)cc1)C(=O)N2 [Example 19, (S)-2-(5-(3,3-bis(4-fluorobenzyl)-2,4-dioxo-1,2,3,4-tetrahydroquinolin-6-yl)-4-(4,4-dimethylpiperidin-1-yl)-2,6-dimethylpyridin-3-yl)-2-(tert-butoxy)acetic acid] | 0.24
20 | Cc1nc(C)c([C@H](OC(C)(C)C)C(=O)O)c(N2CCC(C)(C)CC2)c1-c1ccc2c(c1)c(OCc1ccc(F)cc1)cc(=O)n2C [Example 20, (S)-2-(tert-butoxy)-2-(4-(4,4-dimethylpiperidin-1-yl)-5-(4-((4-fluorobenzyl)oxy)-1-methyl-2-oxo-1,2-dihydroquinolin-6-yl)-2,6-dimethylpyridin-3-yl)acetic acid] | 0.087
21 | Cc1nc(C)c([C@H](OC(C)(C)C)C(=O)O)c(N2CCC(C)(C)CC2)c1-c1ccc2c(c1)CN(Cc1ccc(F)cc1)C2 [Example 21, (S)-2-(tert-butoxy)-2-(4-(4,4-dimethylpiperidin-1-yl)-5-(2-(4-fluorobenzyl)isoindolin-5-yl)-2,6-dimethylpyridin-3-yl)acetic acid] | 0.03
22 | Cc1nc(C)c([C@H](OC(C)(C)C)C(=O)O)c(N2CCC(C)(C)CC2)c1-c1ccc2c(c1)CN(C(=O)c1ccc(F)cc1)C2 [Example 22, (S)-2-(tert-butoxy)-2-(4-(4,4-dimethylpiperidin-1-yl)-5-(2-(4-fluorobenzoyl)isoindolin-5-yl)-2,6-dimethylpyridin-3-yl)acetic acid] | 0.053
23 | CCOc1ccc(S(=O)(=O)N2Cc3ccc(-c4c(C)nc(C)c([C@H](OC(C)(C)C)C(=O)O)c4N4CCC(C)(C)CC4)cc3C2)cc1 [Example 23, (S)-2-(tert-butoxy)-2-(4-(4,4-dimethylpiperidin-1-yl)-5-(2-((4-ethoxyphenyl)sulfonyl)isoindolin-5-yl)-2,6-dimethylpyridin-3-yl)acetic acid] | 0.017
24 | COc1ccc(S(=O)(=O)N2Cc3ccc(-c4c(C)nc(C)c([C@H](OC(C)(C)C)C(=O)O)c4N4CCC(C)(C)CC4)cc3C2)cc1 [Example 24, (S)-2-(tert-butoxy)-2-(4-(4,4-dimethylpiperidin-1-yl)-5-(2-((4-methoxyphenyl)sulfonyl)isoindolin-5-yl)-2,6-dimethylpyridin-3-yl)acetic acid] | 0.01
